Assay results taken from patent publication US11441122B2, “Regulatory T cell epitopes” (EpiVax, Inc., priority 2017, dated 2022).
“And” between values parts separate entries of the source, which are not always exact repeats. Equal entries are not always repeated.

Columns and labels:
[1] = tested on: CD4+CD25+ FoxP3+ regulatory T cells; assay type: cell-based, human
[2] = tested on: CD4+ effector memory T cells; assay type: cell-based, human
[3] = tested on: T cells in PBMCs from lupus patients; details: cited from earlier work
Class II HLA alleles = assay: Soluble HLA competition binding assay, panel of five alleles (summary statements); set-up: species or system human
Procedure: HLA Binding Assay. Binding activity was analyzed at EpiVax (Providence, R.I.). The binding assay used (Steere A C et al., (2006), J Exp Med, 2003(4):961-71) yielded an indirect measure of peptide-MHC affinity. Soluble HLA molecules were loaded onto a 96-well plate with the unlabeled experimental Tregitopes and labeled control peptide. Once the binding mixture reached steady equilibrium (at 24 hours), the HLA-Tregitope complexes were captured on an ELISA plate coated with anti-human DR antibody and detected with a Europium-linked probe for the label (PerkinElmer, Waltham, Mass.). Time-resolved fluorescence measuring bound labeled control peptide is assessed by a SpectraMax® M5 unit (Spectramax, Radnor, Pa.). Binding of experimental Tregitopes was expressed as the percent inhibition of the labeled control peptide (experimental fluorescence/control fluorescence multiplied by 100).
The experimental Tregitopes were solvated in DMSO. The diluted Tregitopes were then mixed with binding reagents in aqueous buffering solution, yielding a range of final concentrations from 100,000 nM down to 100 nM. Tregitopes were then assayed against a panel of five common Class II HLA alleles: HLA-DRB1*0101, HLA-DRB1*0301, HLA-DRB1*0701, HLA-DRB1*1101, and HLA-DRB1*1501. […]

Sequence: KIVFKNMASRPYSIY (listed as Homo sapiens) [SEQ ID NO: 3, Factor V derived peptide, used as negative control peptide]
- relative proportion of highly proliferative regulatory T cells (CFSE low FoxP3+) among CD25+ Granzyme B+ CD4+ T cells [1]: no significant effect
- activated (CD25 high) proliferating (CFSE low) CD4 T cells stimulated by Tetanus Toxoid [2]: no significant inhibitory effect
- activated effector CD4+ T cells (CD4+/CD25-high/FoxP3-intermediate) reacting to Tetanus Toxoid [2]: no appreciable effect
- proliferation of CD4- cell population [2]: little inhibitory effect
- proliferation of total CD4+ T cells (CFSE low) [2]: little to no effect

Sequence: RIHMVYSKRSGKPRGYAFIEY (listed as Homo sapiens) [peptide 131-151]
- randomly selected lupus patients whose PBMCs contain T cells that proliferate in response to the peptide [3]: 40%

Sequence: FAVFDENKSWYLEDN (listed as Homo sapiens) [SEQ ID NO: 4]
- HLA binding profile (Class II HLA alleles): highly-restricted HLA binding profiles

Sequence: EKDIHSGLIGPLLI (listed as Homo sapiens) [SEQ ID NO: 6]
- HLA binding profile (Class II HLA alleles): highly-restricted HLA binding profiles

Sequence: IHSIHFSGHVFTVRK (listed as Homo sapiens) [SEQ ID NO: 2]
- CD4+ T cell activation and proliferation of Teff responding to TT [2]: inhibited both CD4+ T cell memory responses
- CD4+ T cell activation reduced by [2]: 70% and 50%
